This is an account of results in the supplement of paper PMC6045584.

Compound in one assay: O=C(CCCCCCC(=O)Nc1ccccc1)NO [VORINOSTAT]
Description: surviving fraction relative to DMSO-only wells; higher = less growth inhibition. To be noted: exposure time: 5 days. Summed up: (§1)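 Inhibitors were tested at 0.5, 1, 5, 10, 50, 100, 500 and 1000 nM, applied continuously for five days beginning 24 hours after log-phase tumour cells were seeded at 250–500 per well in 384-well plates. CellTiter-Glo luminescence served as the viability measure, expressed as surviving fraction against the median of DMSO-only wells. Each line, screened three times, was kept only with replicate Pearson r >0.7 and median Z' >0.3.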

Compound in another assay: Cn1c(=O)n(-c2ccc(C(C)(C)C#N)cc2)c2c3cc(-c4cnc5ccccc5c4)ccc3ncc21 [BEZ-235]
The description is as above. To be noted: exposure time: 5 days. Summed up:
as §1

± gives the standard deviation of the averaged measurements.

Take MDAMB453 BREAST: the surviving fraction amounted to 0.998 ± 0.032 with VORINOSTAT (0.5 nM); 1.01 ± 0.079 in the assay with VORINOSTAT (1 nM); 1.03 ± 0.062 with VORINOSTAT (5 nM); 1.05 ± 0.065 in the assay with VORINOSTAT (10 nM); 1.06 ± 0.038 with VORINOSTAT (50 nM); 1.06 ± 0.022 in the assay with VORINOSTAT (100 nM). Moreover, the surviving fraction with VORINOSTAT (500 nM) came to 0.785 ± 0.036; with VORINOSTAT (1000 nM) it was 0.244 ± 0.0089; with BEZ-235 (0.5 nM), 1.05 ± 0.066; with BEZ-235 (1 nM), 1.05 ± 0.022; in the assay with BEZ-235 (5 nM), 1.09 ± 0.015; with BEZ-235 (10 nM), 1.05 ± 0.057. In addition, the surviving fraction in the assay with BEZ-235 (50 nM) came to 0.574 ± 0.046; in the assay with BEZ-235 (100 nM), 0.359 ± 0.025; in the assay with BEZ-235 (500 nM) it was 0.197 ± 0.011; with BEZ-235 (1000 nM), 0.169 ± 0.012.

For MDAMB436 BREAST, the surviving fraction with VORINOSTAT (0.5 nM) is 0.83 ± 0.045; in the assay with VORINOSTAT (1 nM), 0.905 ± 0.045; with VORINOSTAT (5 nM), 0.854 ± 0.056; in the assay with VORINOSTAT (10 nM), 0.911 ± 0.086; with VORINOSTAT (50 nM), 0.937 ± 0.081; in the assay with VORINOSTAT (100 nM) it was 0.835 ± 0.055. The surviving fraction was determined as 0.766 ± 0.072 with VORINOSTAT (500 nM); 0.582 ± 0.066 with VORINOSTAT (1000 nM); 0.94 ± 0.084 with BEZ-235 (0.5 nM); 0.898 ± 0.085 in the assay with BEZ-235 (1 nM); 0.876 ± 0.078 in the assay with BEZ-235 (5 nM); 0.852 ± 0.088 in the assay with BEZ-235 (10 nM). Further, the surviving fraction worked out at 0.545 ± 0.016 with BEZ-235 (50 nM), 0.51 ± 0.047 in the assay with BEZ-235 (100 nM), 0.392 ± 0.022 with BEZ-235 (500 nM) and 0.356 ± 0.013 with BEZ-235 (1000 nM).

As for SIHA CERVIX, the surviving fraction amounted to 0.978 ± 0.05 with VORINOSTAT (0.5 nM); 0.965 ± 0.018 in the assay with VORINOSTAT (1 nM); 1.07 ± 0.025 with VORINOSTAT (5 nM); 1.06 ± 0.13 with VORINOSTAT (10 nM); 1.2 ± 0.032 with VORINOSTAT (50 nM); 1.17 ± 0.13 in the assay with VORINOSTAT (100 nM). Further, the surviving fraction with VORINOSTAT (500 nM) amounted to 1.15 ± 0.035; with VORINOSTAT (1000 nM) it was 1 ± 0.14; with BEZ-235 (0.5 nM), 1.08 ± 0.1; with BEZ-235 (1 nM), 1.14 ± 0.099; in the assay with BEZ-235 (5 nM), 1.07 ± 0.044; with BEZ-235 (10 nM) it was 1.03 ± 0.046. Also, the surviving fraction with BEZ-235 (50 nM) turned out to be 0.642 ± 0.064; with BEZ-235 (100 nM) it was 0.485 ± 0.029; in the assay with BEZ-235 (500 nM), 0.237 ± 0.008; with BEZ-235 (1000 nM), 0.222 ± 0.016.

In the case of 143B BONE, the surviving fraction with VORINOSTAT (0.5 nM) was 1.01 ± 0.0028; with VORINOSTAT (1 nM) it was 1.02 ± 0.011; with VORINOSTAT (5 nM), 1.053 ± 0.0014; with VORINOSTAT (10 nM), 1.01 ± 0.031; with VORINOSTAT (50 nM) it was 1.01 ± 0.03; with VORINOSTAT (100 nM) it was 1.02 ± 0.042. For the same test system, the surviving fraction was found to be 0.858 ± 0.11 with VORINOSTAT (500 nM); 0.835 ± 0.026 with VORINOSTAT (1000 nM); 1.03 ± 0.047 with BEZ-235 (0.5 nM); 1.04 ± 0.047 with BEZ-235 (1 nM); 1.031 ± 0.0028 with BEZ-235 (5 nM); 1.0385 ± 0.00071 with BEZ-235 (10 nM). Besides, the surviving fraction in the assay with BEZ-235 (50 nM) was 0.852 ± 0.033; with BEZ-235 (100 nM), 0.735 ± 0.017; with BEZ-235 (500 nM) it was 0.36 ± 0.017; with BEZ-235 (1000 nM) it was 0.336 ± 0.0028.

On to U2OS BONE, for which the surviving fraction stood at 0.934 ± 0.013 with VORINOSTAT (0.5 nM); 1.03 ± 0.015 with VORINOSTAT (1 nM); 0.995 ± 0.026 in the assay with VORINOSTAT (5 nM); 1.01 ± 0.02 in the assay with VORINOSTAT (10 nM); 1.01 ± 0.016 with VORINOSTAT (50 nM); 1.04 ± 0.04 with VORINOSTAT (100 nM). Besides, the surviving fraction in the assay with VORINOSTAT (500 nM) amounted to 0.909 ± 0.047; in the assay with VORINOSTAT (1000 nM) it was 0.751 ± 0.051; with BEZ-235 (0.5 nM), 1.03 ± 0.049; with BEZ-235 (1 nM), 1.058 ± 0.0092; with BEZ-235 (5 nM) it was 1.06 ± 0.011; with BEZ-235 (10 nM), 1.06 ± 0.013. Further, the surviving fraction with BEZ-235 (50 nM) is 0.9133 ± 0.0045; with BEZ-235 (100 nM) it was 0.78 ± 0.038; in the assay with BEZ-235 (500 nM), 0.293 ± 0.006; in the assay with BEZ-235 (1000 nM), 0.256 ± 0.013.

Regarding COLO320DM LARGE INTESTINE, the surviving fraction with VORINOSTAT (0.5 nM) is 1.1 ± 0.13; in the assay with VORINOSTAT (1 nM), 1.18 ± 0.15; with VORINOSTAT (5 nM), 1.12 ± 0.086; with VORINOSTAT (10 nM), 1.04 ± 0.049; in the assay with VORINOSTAT (50 nM), 1.22 ± 0.17; with VORINOSTAT (100 nM), 1.07 ± 0.14. The surviving fraction was 0.577 ± 0.041 with VORINOSTAT (500 nM); 0.177 ± 0.0091 in the assay with VORINOSTAT (1000 nM); 1.06 ± 0.059 in the assay with BEZ-235 (0.5 nM); 1.12 ± 0.08 with BEZ-235 (1 nM); 1.14 ± 0.074 in the assay with BEZ-235 (5 nM); 1.06 ± 0.039 with BEZ-235 (10 nM). For the same test system, the surviving fraction in the assay with BEZ-235 (50 nM) was found to be 0.869 ± 0.07; with BEZ-235 (100 nM), 0.692 ± 0.034; with BEZ-235 (500 nM), 0.328 ± 0.018; in the assay with BEZ-235 (1000 nM) it was 0.192 ± 0.0043.

On to VCAP PROSTATE, for which the surviving fraction in the assay with VORINOSTAT (0.5 nM) was determined as 1.09 ± 0.082; with VORINOSTAT (1 nM) it was 1.12 ± 0.054; with VORINOSTAT (5 nM), 1.15 ± 0.015; with VORINOSTAT (10 nM) it was 1.17 ± 0.11; with VORINOSTAT (50 nM), 1.16 ± 0.11; with VORINOSTAT (100 nM), 0.994 ± 0.022. Further, the surviving fraction worked out at 0.449 ± 0.017 with VORINOSTAT (500 nM); 0.261 ± 0.04 in the assay with VORINOSTAT (1000 nM); 1.08 ± 0.1 in the assay with BEZ-235 (0.5 nM); 0.994 ± 0.09 with BEZ-235 (1 nM); 1.12 ± 0.082 with BEZ-235 (5 nM); 1.13 ± 0.12 with BEZ-235 (10 nM). Also, the surviving fraction with BEZ-235 (50 nM) amounted to 0.902 ± 0.1; with BEZ-235 (100 nM), 0.867 ± 0.056; with BEZ-235 (500 nM), 0.422 ± 0.053; in the assay with BEZ-235 (1000 nM), 0.402 ± 0.0052.

In the case of YAMATO SYNOVIAL, the surviving fraction was found to be 1.31 ± 0.099 in the assay with VORINOSTAT (0.5 nM); 0.905 ± 0.031 with VORINOSTAT (1 nM); 1.19 ± 0.027 with VORINOSTAT (5 nM); 0.742 ± 0.072 with VORINOSTAT (10 nM); 1.28 ± 0.068 with VORINOSTAT (50 nM); 1.16 ± 0.016 with VORINOSTAT (100 nM). In addition, the surviving fraction with VORINOSTAT (500 nM) is 0.82 ± 0.026; in the assay with VORINOSTAT (1000 nM) it was 0.533 ± 0.038; with BEZ-235 (0.5 nM), 1.28 ± 0.087; with BEZ-235 (1 nM), 1.26 ± 0.12; with BEZ-235 (5 nM) it was 1.34 ± 0.084; in the assay with BEZ-235 (10 nM), 1.12 ± 0.048. The surviving fraction was 0.923 ± 0.043 in the assay with BEZ-235 (50 nM), 0.849 ± 0.12 with BEZ-235 (100 nM), 0.47 ± 0.038 with BEZ-235 (500 nM) and 0.429 ± 0.016 with BEZ-235 (1000 nM).
